Target: D2 receptor (Homo sapiens, UniProt P14416)
Experiment: PET central D2 occupancy studies SWE-1 and SIV-101
Format: in vivo
Source text: It has been empirically derived and is currently widely excepted that 65-70% occupancy is needed for antipsychotics to show clinical efficacy (Farde et al.), i.e. improvement on the PANSS scale. A too high occupancy (80-85%) will typically increase the risk to develop EPS. In order to determine the central D2 occupancy, PET trials in human healthy volunteers are typically performed.

Chain of D2 receptor (P14416 whole entry): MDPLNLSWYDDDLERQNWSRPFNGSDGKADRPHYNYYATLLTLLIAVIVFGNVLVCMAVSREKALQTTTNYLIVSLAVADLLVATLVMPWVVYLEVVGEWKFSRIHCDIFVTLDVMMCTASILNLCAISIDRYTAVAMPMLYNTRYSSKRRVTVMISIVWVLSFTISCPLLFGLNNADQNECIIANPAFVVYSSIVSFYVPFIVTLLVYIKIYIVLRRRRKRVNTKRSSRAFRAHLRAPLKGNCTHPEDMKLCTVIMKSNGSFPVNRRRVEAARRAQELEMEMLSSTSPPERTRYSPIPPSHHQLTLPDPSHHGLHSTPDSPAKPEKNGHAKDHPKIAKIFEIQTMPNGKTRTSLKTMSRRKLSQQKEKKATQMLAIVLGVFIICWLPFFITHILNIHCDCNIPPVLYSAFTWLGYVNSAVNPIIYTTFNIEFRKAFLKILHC

For `Cc1nc2n(c(=O)c1CCN1CCC(c3noc4cc(F)ccc34)CC1)CCCC2O` (centres unmarked) [paliperidone, 9-hydroxy-risperidone], the Kd was 10.3 to 15 nM and the “exposure range for efficacy without an increased risk to develop EPS (target exposure range)” value (calculated using the 65-85% D2 occupancy window) was 7.5 to 40 ng/mL.

— US9439906B2, “Dosing regimen associated with long acting injectable paliperidone esters” (Janssen Pharmaceutica NV, priority 2007, dated 2016)
